Test results: patent publication US8884007B2, “Hexenone compounds and medical use thereof” (Institute of Pharmacology and Toxicology Medical Sciences …, priority 2010, dated 2014)

Legend:
[1] = system: TG-induced cardiomyocytes apoptosis; experiment: Protection against TG-induced cardiomyocytes apoptosis (MTT); assay type: cell-based, Wistar sucking mice
Procedure: The isolation and culture of cardiomyocytes were performed by referring to the differential adhesion method (Kreider, A. Messing, H. Doan, S. U. Kim, R. P. Lisak and D. E. Pleasure, Enrichment of Schwann cell cultures from neonatal rat sciatic nerve by differential adhesion, Brain Res 2 (1981), pp. 433-444). Wistar sucking mice newborn within 24 h were used, sterilized at skin of ventrum with iodine tincture and ethanol, subjected to thoracotomy using scissors at subxiphoid median line with a deviation to left, heart was taken out after slant thoracotomy and placed in PBS precooled with ice; the heart was softly blown and beaten with 0.01M PBS to remove blood cells and other tissues, then cut into pieces with 0.5 mm^3 size, washed with 0.01M PBS repeatedly for 2-3 times; the pieces were placed in conical flask, added with 4 ml of 0.125% pancretin, 1 ml of 0.1% collagenase II (final concentrations separately being 0.1% and 0.02%), shaken in 37° C. water bath for 10 min, the supernatant was discarded; then 4 ml of 0.125% pancretin and 1 ml of 0.1% collagenase II again, shaken in 37° C. water bath for digestion for 10 min, the supernatant was sucked and transferred to a centrifuge tube, and the supernatant was added with DMEM containing 10% FBS to terminate digestion; the step of shaking and digestion in water bath was repeated for 3-4 times, until the tissue pieces were completely digested; the collected cell suspension was centrifuged under 1000 rpm for 10 min, the supernatant was removed, then a culture medium was added for resuspension; the resuspended cells were inoculated in a cell culture flask, placed in CO2 incubator at 37° C. for incubation for 1.5 h, then the culture medium was sucked out, countered under microscope, then DMEM culture medium containing 10% FBS was used to adjust cell density, inoculated in an amount of 1×10^4 to a 96-well plate, placed in 5% CO2 incubator at 37° C. for 24 h, then half medium was replaced, a culture medium containing 0.1% Brdu was supplementally added; then the medium was replaced once per 48 h, and primary cardiomyocytes were obtained after 4 days of cultivation.
The isolated primary culture of cardiomyocytes was inoculated in an amount of 10^4 cells per well to a 96-well plate, and the volume of each well was 100 ul (marginal wells were filled with sterile PBS). […] The optical density (OD) value of each well was measured at wavelength of 550 nm by enzyme-linked immunoassay instrument, and each well was repeatedly measured for 5 times and the results were recorded. […]

[2] = system: primary cardiomyocytes; experiment: Measurement of cell inhibition rate (MTT) on normal primary cardiomyocytes; assay type: cell-based, Wistar sucking mice
Procedure: The isolation and culture of cardiomyocytes were performed by referring to the differential adhesion method (Kreider, A. Messing, H. Doan, S. U. Kim, R. P. Lisak and D. E. Pleasure, Enrichment of Schwann cell cultures from neonatal rat sciatic nerve by differential adhesion, Brain Res 2 (1981), pp. 433-444). […]
The isolated primary culture of cardiomyocytes was inoculated in an amount of 10^4 cells per well to a 96-well plate, and the volume of each well was 100 ul (marginal wells were filled with sterile PBS). […] The optical density (OD) value of each well was measured at wavelength of 550 nm by enzyme-linked immunoassay instrument, and each well was repeatedly measured for 5 times and the results were recorded.

Row | Compound | Survival rate of cardiomyocytes (%) ([1]; TG (0.4 uM) + compound 0.3 μM group, pretreatment 30 min before inducing apoptosis) | Survival rate of cardiomyocytes (%) ([1]; TG (0.4 uM) + compound 1 μM group, pretreatment 30 min before inducing apoptosis) | Survival rate of cardiomyocytes (%) ([1]; TG (0.4 uM) + compound 10 μM group, pretreatment 30 min before inducing apoptosis) | inhibition at 100 µM ([2]; Cardiomyocyte, 100 μM group, MTT, 48 h, normal primary cardiomyocytes, read-out: Inhibitive rate of cardiomyocytes (%)) | inhibition at 300 µM ([2]; Cardiomyocyte, 300 μM group, MTT, 48 h, normal primary cardiomyocytes, read-out: Inhibitive rate of cardiomyocytes (%)) | effect on survival rate of normal cardiomyocyte ([2]; concentration within 300 μM) | Survival rate of cardiomyocytes (%) ([1]; TG intervening group (0.4 uM), TG alone)
1 | O=C(/C=C/c1ccccc1)CC(NC(=S)N1CCOCC1)C(Cl)(Cl)Cl (stereo not shown) [Example 1, (1E)-1-phenyl-5-(1-morpholinylthiocarboxamido)-6,6,6-trichloro-1-ene-3-hexanone] | 76.3 ± 7.6% | 83.3 ± 7.1% | 92.2 ± 5.6% | 2.91 ± 1.88% | 0.76 ± 0.42% | no effect | 
2 | C/C=C(/C)C(=O)O[C@H]1C(C)=C2[C@H]([C@@H]1OC(=O)CCCCCCC)[C@@](C)(OC(C)=O)C[C@H](OC(=O)CCC)[C@@]1(O)[C@H]2OC(=O)[C@@]1(C)O [TG, thapsigargin, reference compound] |  |  |  |  |  |  | 59 ± 1.1%
